{
  "source": "paper PMC10074041",
  "about": "(RSC Advances, 2023)",
  "target": "α-glucosidase",
  "assay": "pNPG hydrolysis, absorbance […] nm",
  "type": "biochemical",
  "settings": "1.25 mM pNPG, phosphate pH 6.8, 35 min preincubation at room temperature",
  "data": [
    {"compound": "CC(=O)NC(CC(=O)O)c1ccccc1O", "note": "(stereo not shown) [L1, 3-Acetylamino-3(2-hydroxyphenyl) propanoic acid]", "values": [
      {"measurement": "IC50 (μg mL^-1) / In vitro α-glucosidase inhibitory activity", "result": "40.96 ± 0.96", "unit": "µg/mL"}
    ]}
  ]
}
